# According to patent US20240115654A1, “INTRAVENOUS ADMINISTRATION OF ENGINEERED ANTIMICROBIAL AMPHIPHILIC PEPTIDES” (priority 2021, published 2024):
# Where two headings read alike, the source gives them in different places. Peptide text beside a SMILES is read from it.
# Conditions: human, in vivo
# [1] = single 1-hour infusion 0.05 mg/kg, Geometric Mean
# [2] = single 1-hour infusion 0.05 mg/kg, Mean
# [3] = single 1-hour infusion 0.05 mg/kg, Median
# [4] = single 1-hour infusion 0.05 mg/kg, individual subjects
# 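Further: phase 1 study in human subjects given one IV dose of the peptide, enrolled in sequential ascending-dose cohorts and randomized to peptide or placebo.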
# Procedure: Administration was a single 1-hour infusion.
# Subjects were enrolled in sequential cohorts of peptide ascending dose levels and randomly assigned to receive a single IV administration of either peptide or placebo over 1 to 2 hours. […] In addition, the infusion volume was adjusted for Cohort 4 to maintain drug concentrations in line with Cohort 2
# Blood samples for PK assessment were collected at pre-dose, at the midpoint of infusion, within 1 minute after the end-of-infusion and at 0.5, 1, 2, 4, 6, 8, 12, 20, 24, 36 and 48 hours after the end-of-infusion.
# The pharmaceutical composition was stored at 2° C. to 8° C. for up to 14 days and then 15° C. to 25° C. for up to 48 hours for dosing.
# Subjects were enrolled in sequential cohorts of peptide ascending dose levels and randomly assigned to receive a single IV administration of either peptide or placebo over 1 to 2 hours.
compound,measurement,setting,value
CC(C)[C@H](NC(=O)[C@H](Cc1c[nH]c2ccccc12)NC(=O)[C@H](CCCNC(=N)N)NC(=O)[C@H](CCCNC(=N)N)NC(=O)[C@@H](NC(=O)[C@@H](NC(=O)[C@H](CCCNC(=N)N)NC(=O)[C@@H](NC(=O)[C@@H](NC(=O)[C@H](CCCNC(=N)N)NC(=O)[C@H](CCCNC(=N)N)NC(=O)[C@H](Cc1c[nH]c2ccccc12)NC(=O)[C@@H](NC(=O)[C@H](CCCNC(=N)N)NC(=O)[C@H](CCCNC(=N)N)NC(=O)[C@@H](NC(=O)[C@H](CCCNC(=N)N)NC(=O)[C@H](CCCNC(=N)N)NC(=O)[C@@H](NC(=O)[C@H](Cc1c[nH]c2ccccc12)NC(=O)[C@H](CCCNC(=N)N)NC(=O)[C@@H](N)CCCNC(=N)N)C(C)C)C(C)C)C(C)C)C(C)C)C(C)C)C(C)C)C(C)C)C(=O)N[C@@H](CCCNC(=N)N)C(=O)N[C@@H](CCCNC(=N)N)C(N)=O [SEQ ID NO: 1] (H-RRWVRRVRRVWRRVVRVVRRWVRR-NH2),clearance,,40.3 to 69.7 mL/min
same,AUC(0-inf),"0.05 mg/kg, AUC0-inf, 0.05 mg/kg 1-hr infusion",1.58 µg·h/mL
same,AUC(0-t),"0.05 mg/kg, AUC0-t, 0.05 mg/kg 1-hr infusion",1.28 µg·h/mL
same,AUC(0-inf),"0.05 mg/kg, AUC0-∞",1.58 µg·h/mL
same,Cmax,"0.05 mg/kg, 0.05 mg/kg 1-hr infusion",0.256 µg/mL
same,AUC(0-t),"0.05 mg/kg, mean AUC0-t",1.28 µg·h/mL
same,half-life,"0.05 mg/kg, t1/2, 0.05 mg/kg 1-hr infusion",7.4 h
same,AUC(0-inf),"0.5 mg/kg, AUC0-inf, 0.5 mg/kg 2-hr infusion",9.09 µg·h/mL
same,AUC(0-t),"0.5 mg/kg, AUC0-t, 0.5 mg/kg 2-hr infusion",8.33 µg·h/mL
same,Cmax,"0.5 mg/kg, 0.5 mg/kg 2-hr infusion",1.83 µg/mL
same,half-life,"0.5 mg/kg, t1/2, 0.5 mg/kg 2-hr infusion",16.2 h
same,AUC(0-inf),"1 mg/kg, AUC0-∞",21.1 µg·h/mL
same,AUC(0-t),"1 mg/kg, mean AUC0-t",21.6 µg·h/mL
same,AUC(0-t),"AUC0-24, single 1-hour infusion 0.05 mg/kg, Geometric Mean",1.23 µg·h/mL
same,AUC(0-t),"AUC0-24, single 1-hour infusion 0.05 mg/kg, Mean",1.29 µg·h/mL
same,AUC(0-t),"AUC0-24, single 1-hour infusion 0.05 mg/kg, Median",1.35 µg·h/mL
same,AUC(0-inf),"AUC0-inf, single 1-hour infusion 0.05 mg/kg, Geometric Mean",1.6 µg·h/mL
same,AUC(0-inf),"AUC0-inf, single 1-hour infusion 0.05 mg/kg, Mean",1.61 µg·h/mL
same,AUC(0-inf),"AUC0-inf, single 1-hour infusion 0.05 mg/kg, Median",1.52 µg·h/mL
same,AUC(0-inf),"AUC0-inf, single 1-hour infusion 0.05 mg/kg, individual subjects",1.4 µg·h/mL
same,AUC(0-t),"AUC0-t, single 1-hour infusion 0.05 mg/kg, Geometric Mean",1.22 µg·h/mL
same,AUC(0-t),"AUC0-t, single 1-hour infusion 0.05 mg/kg, Mean",1.31 µg·h/mL
same,AUC(0-t),"AUC0-t, single 1-hour infusion 0.05 mg/kg, Median",1.35 µg·h/mL
same,CL/F,[1],0.0313 L/h/kg
same,CL/F,[2],0.0315 L/h/kg
same,CL/F,[3],0.0329 L/h/kg
same,CL/F,[4],0.0357 L/h/kg
same,Cmax,[1],0.251 µg/mL
same,Cmax,[2],0.256 µg/mL
same,Cmax,[3],0.262 µg/mL
same,Tmax,[1],1 h
same,Tmax,[2],1 h
same,Tmax,[3],1 h
same,Tmax,[4],1 h
same,Tmax,"single 1-hour infusion […], individual subjects",1 h
same,half-life,"[…], t1/2, […] 1-hr infusion",10.5 h
same,half-life,"[…], t1/2, […] 1-hr infusion (only 3 subjects)",19.9 h
same,half-life,"[…], t1/2, […] 2-hr infusion",13.2 h
same,AUC(0-t),"iv, 0.05 mg/kg, AUC0-t, 0.05 mg/kg IV 1-hr infusion",1.28 µg·h/mL
same,AUC(0-inf),"iv, 0.05 mg/kg, AUC0-∞, 0.05 mg/kg IV 1-hr infusion",1.58 µg·h/mL
same,AUC(0-t),"iv, 0.05 mg/kg, AUC(0-24), Actual mean, Phase 1 subjects, 0.05 mg/kg IV",1.29 µg·h/mL
same,Cmax,"iv, 0.05 mg/kg, 0.05 mg/kg IV 1-hr infusion",0.256 µg/mL
same,half-life,"iv, 0.05 mg/kg, t1/2, 0.05 mg/kg IV 1-hr infusion",7.37 h
same,AUC(0-t),"iv, 0.5 mg/kg, AUC0-t, 0.5 mg/kg IV 2-hr infusion",8.33 µg·h/mL
same,AUC(0-inf),"iv, 0.5 mg/kg, AUC0-∞, 0.5 mg/kg IV 2-hr infusion",9.09 µg·h/mL
same,Cmax,"iv, 0.5 mg/kg, 0.5 mg/kg IV 2-hr infusion",1.83 µg/mL
same,half-life,"iv, 0.5 mg/kg, t1/2, 0.5 mg/kg IV 2-hr infusion",16.2 h
same,AUC(0-t),"iv, 1 mg/kg, AUC0-t, 1 mg/kg IV 4-hr infusion",21.6 µg·h/mL
same,AUC(0-inf),"iv, 1 mg/kg, AUC0-∞, 1 mg/kg IV 4-hr infusion",21.1 µg·h/mL
same,Cmax,"iv, 1 mg/kg, 1 mg/kg IV 4-hr infusion",2.65 µg/mL
same,half-life,"iv, 1 mg/kg, t1/2, 1 mg/kg IV 4-hr infusion",20 h
same,AUC(0-t),"iv, AUC0-24, Cohort 1, 0.05 mg/kg IV infusion, Geometric Mean",1.23 µg·h/mL
same,AUC(0-t),"iv, AUC0-24, Cohort 1, 0.05 mg/kg IV infusion, Mean",1.29 µg·h/mL
same,AUC(0-t),"iv, AUC0-24, Cohort 1, 0.05 mg/kg IV infusion, Median",1.35 µg·h/mL
same,AUC(0-t),"iv, AUC0-24, Cohort 1, 0.05 mg/kg IV infusion, cohort Geometric Mean",1.23 µg·h/mL
same,AUC(0-t),"iv, AUC0-24, Cohort 1, 0.05 mg/kg IV infusion, cohort Mean",1.29 µg·h/mL
same,AUC(0-t),"iv, AUC0-24, Cohort 1, 0.05 mg/kg IV infusion, cohort Median",1.35 µg·h/mL
same,AUC(0-t),"iv, AUC0-24, Cohort 4, 0.5 mg/kg IV infusion 2 hours, Geometric Mean",6.93 µg·h/mL
same,AUC(0-t),"iv, AUC0-24, Cohort 4, 0.5 mg/kg IV infusion 2 hours, Mean",7.39 µg·h/mL
same,AUC(0-t),"iv, AUC0-24, Cohort 4, 0.5 mg/kg IV infusion 2 hours, Median",7.27 µg·h/mL
same,AUC(0-t),"iv, AUC0-24, Cohort 4, 0.5 mg/kg IV, infusion 2 hours, cohort Geometric Mean",6.93 µg·h/mL
same,AUC(0-t),"iv, AUC0-24, Cohort 4, 0.5 mg/kg IV, infusion 2 hours, cohort Mean",7.39 µg·h/mL
same,AUC(0-t),"iv, AUC0-24, Cohort 4, 0.5 mg/kg IV, infusion 2 hours, cohort Median",7.27 µg·h/mL
same,AUC(0-t),"iv, AUC0-24, Cohort 5, 1 mg/kg IV infusion 4 hours, Geometric Mean",17.3 µg·h/mL
same,AUC(0-t),"iv, AUC0-24, Cohort 5, 1 mg/kg IV infusion 4 hours, Mean",18 µg·h/mL
same,AUC(0-t),"iv, AUC0-24, Cohort 5, 1 mg/kg IV infusion 4 hours, Median",14.8 µg·h/mL
same,AUC(0-inf),"iv, AUC0-inf, Cohort 1, 0.05 mg/kg IV infusion, Geometric Mean",1.6 µg·h/mL
same,AUC(0-inf),"iv, AUC0-inf, Cohort 1, 0.05 mg/kg IV infusion, Mean",1.61 µg·h/mL
same,AUC(0-inf),"iv, AUC0-inf, Cohort 1, 0.05 mg/kg IV infusion, Median",1.52 µg·h/mL
same,AUC(0-inf),"iv, AUC0-inf, Cohort 1, 0.05 mg/kg IV infusion, cohort Geometric Mean",1.6 µg·h/mL
same,AUC(0-inf),"iv, AUC0-inf, Cohort 1, 0.05 mg/kg IV infusion, cohort Mean",1.61 µg·h/mL
same,AUC(0-inf),"iv, AUC0-inf, Cohort 1, 0.05 mg/kg IV infusion, cohort Median",1.52 µg·h/mL
same,AUC(0-inf),"iv, AUC0-inf, Cohort 1, 0.05 mg/kg IV infusion, individual subject",1.4 µg·h/mL
same,AUC(0-inf),"iv, AUC0-inf, Cohort 1, 0.05 mg/kg IV infusion, individual subjects",1.4 µg·h/mL
same,AUC(0-inf),"iv, AUC0-inf, Cohort 4, 0.5 mg/kg IV infusion 2 hours, Geometric Mean",8.53 µg·h/mL
same,AUC(0-inf),"iv, AUC0-inf, Cohort 4, 0.5 mg/kg IV infusion 2 hours, Mean",9.2 µg·h/mL
same,AUC(0-inf),"iv, AUC0-inf, Cohort 4, 0.5 mg/kg IV infusion 2 hours, Median",9.54 µg·h/mL
same,AUC(0-inf),"iv, AUC0-inf, Cohort 4, 0.5 mg/kg IV, infusion 2 hours, cohort Geometric Mean",8.53 µg·h/mL
same,AUC(0-inf),"iv, AUC0-inf, Cohort 4, 0.5 mg/kg IV, infusion 2 hours, cohort Mean",9.2 µg·h/mL
same,AUC(0-inf),"iv, AUC0-inf, Cohort 4, 0.5 mg/kg IV, infusion 2 hours, cohort Median",9.54 µg·h/mL
same,AUC(0-inf),"iv, AUC0-inf, Cohort 5, 1 mg/kg IV infusion 4 hours, Geometric Mean",21.1 µg·h/mL
same,AUC(0-inf),"iv, AUC0-inf, Cohort 5, 1 mg/kg IV infusion 4 hours, Mean",21.3 µg·h/mL
same,AUC(0-inf),"iv, AUC0-inf, Cohort 5, 1 mg/kg IV infusion 4 hours, Median",21 µg·h/mL
same,AUC(0-inf),"iv, AUC0-inf, Cohort 5, 1 mg/kg IV infusion 4 hours, individual subject",22.1 µg·h/mL
same,AUC(0-t),"iv, AUC0-t, Cohort 1, 0.05 mg/kg IV infusion, Geometric Mean",1.22 µg·h/mL
same,AUC(0-t),"iv, AUC0-t, Cohort 1, 0.05 mg/kg IV infusion, Mean",1.31 µg·h/mL
same,AUC(0-t),"iv, AUC0-t, Cohort 1, 0.05 mg/kg IV infusion, Median",1.35 µg·h/mL
same,AUC(0-t),"iv, AUC0-t, Cohort 1, 0.05 mg/kg IV infusion, cohort Geometric Mean",1.22 µg·h/mL
same,AUC(0-t),"iv, AUC0-t, Cohort 1, 0.05 mg/kg IV infusion, cohort Mean",1.31 µg·h/mL
same,AUC(0-t),"iv, AUC0-t, Cohort 1, 0.05 mg/kg IV infusion, cohort Median",1.35 µg·h/mL
same,AUC(0-t),"iv, AUC0-t, Cohort 4, 0.5 mg/kg IV infusion 2 hours, Geometric Mean",7.83 µg·h/mL
same,AUC(0-t),"iv, AUC0-t, Cohort 4, 0.5 mg/kg IV infusion 2 hours, Mean",8.44 µg·h/mL
same,AUC(0-t),"iv, AUC0-t, Cohort 4, 0.5 mg/kg IV infusion 2 hours, Median",8.54 µg·h/mL
same,AUC(0-t),"iv, AUC0-t, Cohort 4, 0.5 mg/kg IV, infusion 2 hours, cohort Geometric Mean",7.83 µg·h/mL
same,AUC(0-t),"iv, AUC0-t, Cohort 4, 0.5 mg/kg IV, infusion 2 hours, cohort Mean",8.44 µg·h/mL
same,AUC(0-t),"iv, AUC0-t, Cohort 4, 0.5 mg/kg IV, infusion 2 hours, cohort Median",8.54 µg·h/mL
same,AUC(0-t),"iv, AUC0-t, Cohort 5, 1 mg/kg IV infusion 4 hours, Geometric Mean",20.4 µg·h/mL
same,AUC(0-t),"iv, AUC0-t, Cohort 5, 1 mg/kg IV infusion 4 hours, Mean",21.2 µg·h/mL
same,AUC(0-t),"iv, AUC0-t, Cohort 5, 1 mg/kg IV infusion 4 hours, Median",17.6 µg·h/mL
same,Cmax,"iv, Cohort 1, 0.05 mg/kg IV infusion, Geometric Mean",0.251 µg/mL
same,Cmax,"iv, Cohort 1, 0.05 mg/kg IV infusion, Mean",0.256 µg/mL
same,Cmax,"iv, Cohort 1, 0.05 mg/kg IV infusion, Median",0.262 µg/mL
same,Cmax,"iv, Cohort 1, 0.05 mg/kg IV infusion, cohort Geometric Mean",0.251 µg/mL
same,Cmax,"iv, Cohort 1, 0.05 mg/kg IV infusion, cohort Mean",0.256 µg/mL
same,Cmax,"iv, Cohort 1, 0.05 mg/kg IV infusion, cohort Median",0.262 µg/mL
same,Cmax,"iv, Cohort 4, 0.5 mg/kg IV infusion 2 hours, Geometric Mean",1.77 µg/mL
same,Cmax,"iv, Cohort 4, 0.5 mg/kg IV infusion 2 hours, Mean",1.83 µg/mL
